Columns and labels:
Experiment in all cases: relative viability (nuclei count vs DMSO), 5 days (fraction); higher = more cells survive
AGI-6780 + Pictilisib = compound: O=C(Nc1cccc(C(F)(F)F)c1)Nc1cc(S(=O)(=O)NC2CC2)ccc1-c1ccsc1 [AGI-6780] + CS(=O)(=O)N1CCN(Cc2cc3nc(-c4cccc5[nH]ncc45)nc(N4CCOCC4)c3s2)CC1 [Pictilisib] (partner 1 µM)
Summary of the method: (§1)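 Lung cancer cell lines in 1536-well plates got either a single drug or a fixed anchor-drug dose together with five library-drug doses (not always all listed) in √10 steps, by pin tool, on the day after seeding. Nuclei were counted after 5 days, and relative viability is the treated-to-vehicle ratio of nuclei counts. Values are medians of duplicate plates.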

AGI-6780 + Crizotinib = compound: O=C(Nc1cccc(C(F)(F)F)c1)Nc1cc(S(=O)(=O)NC2CC2)ccc1-c1ccsc1 [AGI-6780] + C[C@@H](Oc1cc(-c2cnn(C3CCNCC3)c2)cnc1N)c1c(Cl)ccc(F)c1Cl [Crizotinib] (partner 1 µM)
Summary of the method: as §1

AGI-6780 + Dasatinib = compound: O=C(Nc1cccc(C(F)(F)F)c1)Nc1cc(S(=O)(=O)NC2CC2)ccc1-c1ccsc1 [AGI-6780] + Cc1nc(Nc2ncc(C(=O)Nc3c(C)cccc3Cl)s2)cc(N2CCN(CCO)CC2)n1 [Dasatinib] (partner 0.075 µM)
Summary of the method: as §1

AGI-6780 + Vorinostat = compound: O=C(Nc1cccc(C(F)(F)F)c1)Nc1cc(S(=O)(=O)NC2CC2)ccc1-c1ccsc1 [AGI-6780] + O=C(CCCCCCC(=O)Nc1ccccc1)NO [Vorinostat] (partner 1 µM)
Summary of the method: as §1

Row | Cell Line | relative viability (AGI-6780 + Pictilisib; first compound 0.08 µM) | relative viability (AGI-6780 + Pictilisib; first compound 0.253 µM) | relative viability (AGI-6780 + Pictilisib; first compound 0.8 µM) | relative viability (AGI-6780 + Pictilisib; first compound 8 µM) | relative viability (AGI-6780 + Crizotinib; first compound 0.08 µM) | relative viability (AGI-6780 + Crizotinib; first compound 0.253 µM) | relative viability (AGI-6780 + Crizotinib; first compound 0.8 µM) | relative viability (AGI-6780 + Crizotinib; first compound 8 µM) | relative viability (AGI-6780 + Dasatinib; first compound 0.08 µM) | relative viability (AGI-6780 + Dasatinib; first compound 0.253 µM) | relative viability (AGI-6780 + Dasatinib; first compound 0.8 µM) | relative viability (AGI-6780 + Dasatinib; first compound 2.53 µM) | relative viability (AGI-6780 + Dasatinib; first compound 8 µM) | relative viability (AGI-6780 + Vorinostat; first compound 0.08 µM) | relative viability (AGI-6780 + Vorinostat; first compound 0.253 µM) | relative viability (AGI-6780 + Vorinostat; first compound 0.8 µM) | relative viability (AGI-6780 + Vorinostat; first compound 2.53 µM) | relative viability (AGI-6780 + Vorinostat; first compound 8 µM) | relative viability (AGI-6780 + Pictilisib; first compound 2.53 µM) | relative viability (AGI-6780 + Crizotinib; first compound 2.53 µM)
1 | NCI-H1734 | 0.528 | 0.479 | 0.419 | 0.447 | 0.753 | 0.648 | 0.757 | 0.752 | 0.459 | 0.461 | 0.473 | 0.347 | 0.435 | 0.798 | 0.842 | 0.865 | 0.728 | 0.799 |  | 
2 | NCI-H1755 | 0.445 | 0.467 | 0.408 | 0.441 | 0.878 | 0.818 | 1 | 0.886 | 0.479 | 0.502 | 0.456 | 0.351 | 0.422 | 0.751 | 0.813 | 0.646 | 0.605 | 0.8 | 0.368 | 0.79
3 | NCI-H1915 | 1.02 | 1.04 | 0.976 | 1.03 | 0.885 | 0.88 | 0.902 | 0.835 | 0.358 | 0.333 | 0.344 | 0.249 | 0.304 | 0.563 | 0.538 | 0.516 | 0.468 | 0.482 | 0.855 | 0.857
4 | NCI-H1944 | 0.358 | 0.366 | 0.386 | 0.381 | 1.16 | 1.12 | 1.25 | 1.02 | 0.239 | 0.232 | 0.233 |  | 0.233 | 0.641 | 0.523 | 0.575 |  | 0.579 | 0.323 | 0.926
5 | NCI-H1975 | 0.315 | 0.3 | 0.31 | 0.26 | 1.07 | 1.05 | 0.965 | 0.876 | 0.388 | 0.345 | 0.395 |  | 0.312 | 0.711 | 0.742 | 0.66 | 0.697 | 0.694 | 0.244 | 1.02
6 | NCI-H1993 | 0.0371 | 0.802 | 0.854 | 0.82 | 0.899 | 0.913 | 0.931 | 1 | 0.661 | 0.724 | 0.713 | 0.485 | 0.549 | 1.21 | 0.811 | 0.853 |  | 0.784 | 0.661 | 0.84
7 | NCI-H2009 | 0.731 | 0.884 | 0.911 | 0.867 | 1.02 | 1.09 | 0.976 | 1.05 | 0.27 | 0.309 | 0.258 | 0.312 | 0.32 | 0.754 | 0.712 | 0.693 | 0.707 | 0.628 | 0.737 | 1.01
8 | NCI-H2023 | 0.284 | 0.279 | 0.271 | 0.229 | 0.637 | 0.541 | 0.856 | 0.731 | 0.591 | 0.624 | 0.617 | 0.507 | 0.529 | 0.705 | 0.818 | 0.781 | 0.541 | 0.648 | 0.181 | 0.554
9 | NCI-H2085 | 0.468 | 0.541 | 0.48 | 0.491 | 0.817 | 1.01 | 0.926 | 0.927 | 0.272 | 0.255 | 0.276 | 0.24 | 0.243 | 0.787 | 0.832 | 0.841 | 0.865 | 0.727 | 0.404 | 0.933
10 | NCI-H2087 | 0.787 | 0.914 | 0.879 | 0.773 | 0.869 | 0.922 | 0.851 | 0.919 | 0.843 | 0.866 | 0.888 | 0.852 | 0.838 | 0.546 | 0.646 | 0.719 | 0.744 | 0.868 | 0.644 | 0.86
11 | NCI-H2126 | 0.484 | 0.573 | 0.496 | 0.493 | 1.1 | 1.01 | 1.03 | 1.05 | 0.632 | 0.657 | 0.566 | 0.381 | 0.586 | 0.855 | 0.884 | 0.79 | 0.585 | 0.758 | 0.44 | 1.02
12 | NCI-H2170 | 0.348 | 0.358 | 0.328 | 0.303 | 1.28 | 1.14 | 1.36 | 1.24 | 0.585 | 0.713 | 0.579 | 0.499 | 0.59 | 0.882 | 0.996 | 0.835 |  | 0.833 |  | 
13 | NCI-H2228 | 0.378 | 0.532 | 0.358 | 0.386 | 0.492 | 0.584 | 0.453 | 0.512 | 0.528 | 0.555 | 0.468 | 0.381 | 0.545 | 0.641 | 0.597 | 0.592 | 0.502 | 0.537 | 0.133 | 0.368
14 | NCI-H2347 | 0.747 | 0.648 | 0.591 | 0.897 | 0.733 | 0.738 | 0.59 | 0.801 | 0.323 | 0.342 | 0.276 | 0.307 | 0.317 | 0.575 | 0.587 | 0.637 | 0.553 | 0.784 | 0.553 | 0.663
15 | NCI-H2405 | 0.411 | 0.467 | 0.262 | 0.53 | 0.839 | 0.801 | 0.583 | 0.829 | 0.217 | 0.205 | 0.188 | 0.194 | 0.203 |  | 0.975 | 0.943 | 0.937 | 0.954 |  | 0.827
16 | NCI-H3122 | 0.584 | 0.563 | 0.625 | 0.62 | 0.252 | 0.291 | 0.301 | 0.293 | 0.86 | 0.904 | 0.911 | 0.669 | 0.955 | 1.03 | 0.805 | 0.843 | 0.832 | 1.02 | 0.548 | 0.252
17 | PC-3 [JPC-3] | 0.767 | 0.78 | 0.819 | 0.691 | 1.01 | 0.928 | 0.971 | 0.977 | 0.992 | 0.974 | 0.944 | 0.922 | 0.923 |  | 0.866 | 1.08 | 0.967 | 0.731 | 0.687 | 0.994
